Data: paper PMC12138161, “Structure–activity analysis of imino‐pyrimidinone‐fused pyrrolidines aids the development of dual plasmepsin V and plasmepsin X inhibitors” (The Febs Journal, 2025)
Several values for one entry are separate records, joined by “and”; a condition that tells them apart may be missing. Identical values can stand only once. Like-named read-outs stand apart in the source and are kept apart here.

Tests used:
PMV = details: cited from earlier work
[1] = system: 3D7 strain of Plasmodium falciparum; details: blood stage growth, read-out: Pf 3D7 EC50; cited from earlier work
PMX = details: cited from earlier work
PMIX = details: cited from earlier work
[2] = target: T1, Plasmodium falciparum PMIX (Plasmodium falciparum, UniProt Q8ILG2); assay: Plasmepsin IX fluorogenic substrate cleavage assay; assay type: biochemical; details: P. falciparum PMIX; average of three independent experiments; read-out: PMIX IC50 (SD)
T1 sequence (Q8ILG2 1-627): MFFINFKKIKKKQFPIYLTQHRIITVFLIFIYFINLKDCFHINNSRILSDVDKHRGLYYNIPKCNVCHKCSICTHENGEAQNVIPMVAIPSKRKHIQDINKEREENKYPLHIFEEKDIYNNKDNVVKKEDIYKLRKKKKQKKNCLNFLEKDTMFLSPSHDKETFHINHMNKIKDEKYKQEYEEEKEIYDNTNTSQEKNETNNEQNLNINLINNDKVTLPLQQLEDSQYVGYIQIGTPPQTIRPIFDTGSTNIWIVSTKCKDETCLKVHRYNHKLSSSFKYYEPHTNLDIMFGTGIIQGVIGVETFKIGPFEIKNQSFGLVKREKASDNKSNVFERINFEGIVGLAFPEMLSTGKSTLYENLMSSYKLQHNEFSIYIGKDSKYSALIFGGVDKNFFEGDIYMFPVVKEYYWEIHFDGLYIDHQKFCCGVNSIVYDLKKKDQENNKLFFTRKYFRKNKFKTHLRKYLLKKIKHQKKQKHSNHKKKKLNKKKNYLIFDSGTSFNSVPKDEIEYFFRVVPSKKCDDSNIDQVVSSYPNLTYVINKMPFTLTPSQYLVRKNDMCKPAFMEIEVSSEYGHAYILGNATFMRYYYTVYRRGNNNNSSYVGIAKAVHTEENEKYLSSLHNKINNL
Description: (§1) These fluorogenic assays follow protocols previously described. Compound potency was assessed with 10 point, threefold dilution series starting at 100 μM in duplicate per experiment and repeated in three independent experiments. Data were normalized to percent inhibition relative to 1% DMSO (high control) and either 1 μM WEHI‐600 for PMV and 1 μM WM382 for PMIX/PMX (low controls). IC50 values (relative inflection of dose–response curve) were calculated using a nonlinear regression four‐parameter fit analysis in DOTMATICS 5.3 (Dotmatics, Boston, MA, USA) and SPOTFIRE 7.11.1 (Goteborg, Sweden) software. The equation used was sigmoidal dose–response (variable slope), Y = bottom + (top − bottom)/(1 + 10 ((logIC50 − X) × Hill Slope)). Reported IC50 values were calculated based on the averages of three independent dataset. Assay robustness and data quality was assessed by Z′ > 0.5 (Z′ = 1 − (3 × (SD high + SD low)/(mean high − mean low))) and activity reproducibility of reference compound. WEHI‐600 (PMV) or WM382 (PMIX/PMX) were included as reference compounds in every experiment to monitor the assay performance. Any drift in activity greater than threefold from the average acceptable range and the experiment was rejected and repeated.

P. falciparum PMX = P. falciparum PMX (Plasmodium falciparum, UniProt Q8IAS0); assay: Plasmepsin X fluorogenic substrate cleavage assay; assay type: biochemical; details: for IC50: P. falciparum PMX, average of three independent experiments, read-out: PMX IC50 (SD)
Description: as §1

[3] = system: P. falciparum 3D7 asexual parasites; assay: P. falciparum growth inhibition assay (LDH activity, 72 h); assay type: cell-based, Plasmodium falciparum; details: for EC50: Plasmodium falciparum, 3D7 asexual parasites, 72 h exposure, LDH activity, three independent experiments, read-out: Pf 3D7 EC50 (SD)
Description: The ability of compounds to block growth of blood stage P. falciparum parasites was determined using a growth inhibition assay (GIA) as described. Compound potency was assessed with 10 point, threefold dilution series starting at 10 μM in duplicate per experiment and repeated in three independent experiments. Data were normalized to percent viability relative to 0.1% DMSO (high growth control) and 2.5 μM chloroquine (low growth control). EC50 values (relative inflection of dose–response curve) were calculated using a nonlinear regression four‐parameter fit analysis in DOTMATICS 5.3 and SPOTFIRE 7.11.1 software. The equation used was sigmoidal dose–response (variable slope), Y = bottom + (top − bottom)/(1 + 10 ((logEC50 − X) × Hill Slope)). Reported EC50 values were calculated on the average of three independent dataset. Assay robustness and data quality was assessed by Z′ > 0.5 (Z′ = 1 − (3 × (SD high + SD low)/(mean high − mean low))) and activity reproducibility of reference compound WM382, which was included in every experiment. Any drift in WM382 activity greater than threefold from the average acceptable range and the experiment was rejected and repeated.

[4] = target: T2, recombinant Plasmodium vivax PMV (Plasmodium vivax, UniProt A5K302); assay: Plasmepsin V fluorogenic substrate cleavage assay; assay type: biochemical; details: for IC50: recombinant P. vivax PMV, average of three independent experiments, read-out: PMV IC50 (SD)
T2 construct: PvPMV (residues R35–R476) was prepared similarly; gp67 signal peptide (N); TEV protease cleavage site + FLAG tag (C); made in house; host or cells: Sf21 insect cells
Source text: To uncover nonpeptidomimetic drug‐like inhibitors of the aspartic protease PvPMV, we screened a library of 1298 compounds that were known to inhibit human aspartyl proteases. These compounds were selected by chemoinformatic structural diversity from a larger library of compounds that targeted human aspartyl proteases and has been used previously to identify hit compounds that inhibited P. falciparum growth. These hit compounds belonged to a single chemical class and were used to develop a lead compound WM382 that is a dual selective inhibitor of PMIX and PMX from P. falciparum and P. vivax. The screen utilized a FRET‐based assay with PvPMV and a fluorogenic EDANS‐DACBYL labeled peptide with the P. falciparum knob‐associated histidine‐rich protein (KAHRP) PEXEL motif amino acid sequence.
as §1

Chain of P. falciparum PMX (Q8IAS0 222-573): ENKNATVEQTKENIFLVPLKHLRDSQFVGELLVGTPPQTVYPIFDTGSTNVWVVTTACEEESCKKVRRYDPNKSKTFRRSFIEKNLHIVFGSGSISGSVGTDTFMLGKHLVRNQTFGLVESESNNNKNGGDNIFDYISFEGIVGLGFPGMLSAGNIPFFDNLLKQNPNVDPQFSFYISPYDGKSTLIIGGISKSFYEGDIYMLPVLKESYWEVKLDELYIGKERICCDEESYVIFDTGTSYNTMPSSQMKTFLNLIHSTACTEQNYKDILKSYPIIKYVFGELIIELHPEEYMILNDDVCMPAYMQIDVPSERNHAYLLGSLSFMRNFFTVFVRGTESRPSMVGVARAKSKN
T2 sequence (A5K302 35-476): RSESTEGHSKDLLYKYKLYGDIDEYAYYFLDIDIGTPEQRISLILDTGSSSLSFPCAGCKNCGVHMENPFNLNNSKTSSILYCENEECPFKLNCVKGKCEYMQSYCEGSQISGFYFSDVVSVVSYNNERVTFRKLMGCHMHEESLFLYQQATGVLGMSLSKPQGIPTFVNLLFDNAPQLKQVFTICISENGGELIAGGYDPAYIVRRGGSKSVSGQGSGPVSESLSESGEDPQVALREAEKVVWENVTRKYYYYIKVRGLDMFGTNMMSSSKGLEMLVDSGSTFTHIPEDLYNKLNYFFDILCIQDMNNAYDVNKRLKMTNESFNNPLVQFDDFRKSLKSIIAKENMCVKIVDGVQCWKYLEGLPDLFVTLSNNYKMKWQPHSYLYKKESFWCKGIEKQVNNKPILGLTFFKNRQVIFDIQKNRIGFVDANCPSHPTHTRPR

Row | IC50 [2] | IC50 (P. falciparum PMX) | IC50 [4] | Compound | EC50 [3] | also measured
1 |  |  |  | CCC1(CC)CC(=O)N([C@@H]2CCOc3ccc(C(=O)N[C@H]4CC(C)(C)Oc5ccccc54)cc32)C(=N)N1 [WM382 (5)] |  | IC50 (PMV): > 1000 nM; EC50 [1]: 0.6 nM; IC50 (PMX): 0.04 nM; IC50 (PMIX): 0.4 nM
2 |  |  |  | Cc1c(NC(=O)c2cccc(C#N)c2)cccc1[C@]1(C)CC(=O)N([C@H]2CCO[C@@H](C)C2)C(=N)N1 [UCB7362 (4)] |  | EC50 [1]: 10 nM; IC50 (PMX): 7 nM; IC50 (PMIX): 142 nM
3 | 390 to 1170 nM and 1170 nM | 390 to 1170 nM and 473 nM | 1500 nM | COc1cccc(-c2cccnc2N2CC3C(=O)N(C)C(=N)NC3(c3cc(F)ccc3F)C2)c1 (centres unmarked) [Compound 13] | > 10000 nM | 
4 | 434 nM | 187 nM | > 3700 nM | CN1C(=N)NC2(c3cc(F)ccc3F)CN(c3ncccc3-c3ccc(Cl)c(Cl)c3)CC2C1=O (centres unmarked) [Compound 19] | > 10000 nM | 
5 |  |  |  | CC(C)C[C@H](NC(=O)[C@@H](NC(=O)[C@H](CCONC(=N)N)NC(=O)OCc1ccccc1)C1CCCCC1)[C@@H](O)CC(=O)NCCc1ccccc1 [WEHI-601 (2)] |  | IC50 (PMV): 5 nM; IC50 (PMV; stated in text with reference to Fig. 1): < 20 nM; EC50 [1]: 90 nM; IC50 (PMX): 330 nM; IC50 (PMIX): > 50000 nM
6 | 1080 nM | 343 nM | 357 nM | CN1C(=N)NC2(c3cc(F)ccc3F)CN(c3ncccc3-c3ccc(Cl)cc3)CC2C1=O (centres unmarked) [R/S‐WM48 (14), 6‐(3‐(4‐chlorophenyl)pyridin‐2‐yl)‐7a‐(2,5‐difluorophenyl)‐2‐imino‐3‐methylhexahydro‐1H‐pyrrolo[3,4‐d]pyrimidin‐4(4aH)‐one] | > 10000 nM | 
7 | 10400 nM | 3470 nM | 1050 nM | CN1C(=N)NC2(c3cc(F)ccc3F)CN(c3nn(C)cc3-c3ccccc3)CC2C1=O (centres unmarked) [Compound 29] | > 10000 nM | 
8 | 360 nM | 1070 nM | 517 nM | CN1C(=N)NC2(c3cc(F)ccc3F)CN(c3ncccc3-c3ccc(Cl)cc3Cl)CC2C1=O (centres unmarked) [Compound 17] | > 10000 nM | 
9 | 1150 nM | 440 nM | 1010 nM | CN1C(=N)NC2(c3cc(F)ccc3F)CN(c3ncccc3-c3ccc(Cl)c(F)c3)CC2C1=O (centres unmarked) [Compound 20] | > 10000 nM | 
10 | 3230 nM | 990 nM | 967 nM | CN1C(=N)NC2(c3cc(F)ccc3F)CN(c3ncccc3-c3ccc(F)cc3Cl)CC2C1=O (centres unmarked) [Compound 21] | > 10000 nM | 
11 | 1630 nM | 420 nM | 690 nM | Cc1ccc(-c2cccnc2N2CC3C(=O)N(C)C(=N)NC3(c3cc(F)ccc3F)C2)c(Cl)c1 (centres unmarked) [Compound 22] | > 10000 nM | 
12 | 1080 nM | 483 nM | > 3700 nM | CN1C(=N)NC2(c3cc(F)ccc3F)CN(c3ncccc3-c3ccc(Cl)cc3C(F)(F)F)CC2C1=O (centres unmarked) [Compound 18] | > 10000 nM | 
13 | 4530 nM | 1330 nM | 1020 nM | CN1C(=N)NC2(c3cc(F)ccc3F)CN(c3ncccc3-c3ccccc3F)CC2C1=O (centres unmarked) [Compound 7] | > 10000 nM | 
14 | 990 nM | 473 nM | 440 nM | CN1C(=N)NC2(c3cc(F)ccc3F)CN(c3ncsc3-c3ccccc3)CC2C1=O (centres unmarked) [Compound 27] | > 10000 nM | 
15 | > 10000 nM | 7500 nM | 303 nM | COc1ccccc1-c1cccnc1N1CC2C(=O)N(C)C(=N)NC2(c2cc(F)ccc2F)C1 (centres unmarked) [Compound 11] | > 10000 nM | improvement of PMV inhibition ([4]; compared with WM36 (8)): 2.5 fold
16 | 2000 nM | 473 nM | 3600 nM | COc1ccc(-c2cccnc2N2CC3C(=O)N(C)C(=N)NC3(c3cc(F)ccc3F)C2)cc1 (centres unmarked) [Compound 15] | > 10000 nM | 
17 |  | 70 nM | 610 nM | CN1C(=N)NC2(c3cc(F)ccc3F)CN(c3ncccc3-c3ccc(Cl)s3)CC2C1=O (centres unmarked) [Compound 26] | 2500 nM | 
18 | 4870 nM | 1100 nM | 807 nM | CN1C(=N)NC2(c3cc(F)ccc3F)CN(c3ncccc3-c3ccccc3Cl)CC2C1=O (centres unmarked) [R/S‐WM36 (8)] | > 10000 nM | inhibition of P. falciparum asexual parasite replication / antimalarial activity (in words) ([3]; blood stage): did not inhibit
19 | 350 nM | 9 nM | 1110 nM | CN1C(=N)NC2(c3cc(F)ccc3F)CN(c3ncccc3-c3sccc3Cl)CC2C1=O (centres unmarked) [R/S‐WM396 (25)] | 200 nM | more potent against PMX (P. falciparum PMX; than the unsubstituted comparator analog 24): 8 ×
20 | 3970 nM | 1280 nM | 3450 nM | CN1C(=N)NC2(c3cc(F)ccc3F)CN(c3ncccc3-c3ccccc3C(F)(F)F)CC2C1=O (centres unmarked) [Compound 10] | > 10000 nM | 
21 | 3000 nM | 1070 nM | 440 nM | CN1C(=N)NC2(c3cc(F)ccc3F)CN(c3ncccc3-c3ccccc3)CC2C1=O (centres unmarked) [Compound 6] | > 10000 nM | 
22 | 390 to 1170 nM and 560 nM | 390 to 1170 nM and 390 nM | > 3700 nM | CN1C(=N)NC2(c3cc(F)ccc3F)CN(c3ncccc3-c3cccc(Cl)c3)CC2C1=O (centres unmarked) [Compound 12] | > 10000 nM | 
23 | 1200 nM | 67 nM | 1230 nM | CN1C(=N)NC2(c3cc(F)ccc3F)CN(c3ncccc3-c3cccs3)CC2C1=O (centres unmarked) [Compound 24] | 1770 nM | 
24 | 2170 nM | 64 nM | 683 nM | CN1C(=N)NC2(c3cc(F)ccc3F)CN(c3n[nH]cc3-c3ccccc3)CC2C1=O (centres unmarked) [R/S‐WM447 (28), 7a‐(2,5‐difluorophenyl)‐2‐imino‐3‐methyl‐6‐(4‐phenyl‐1H‐pyrazol‐3‐yl)hexahydro‐1H‐pyrrolo[3,4‐d]pyrimidin‐4(4aH)‐one] | 1530 nM | 
25 | 5500 nM | 2070 nM | 610 nM | Cc1ccccc1-c1cccnc1N1CC2C(=O)N(C)C(=N)NC2(c2cc(F)ccc2F)C1 (centres unmarked) [Compound 9] | > 10000 nM | 
26 | 417 nM | 1330 nM | 780 nM | CN1C(=N)NC2(c3cc(F)ccc3F)CN(c3ncccc3-c3ccc(Cl)cc3F)CC2C1=O (centres unmarked) [Compound 16] | > 10000 nM | 
27 | 1630 nM | 420 nM | 3170 nM | COc1ccc(-c2cccnc2N2CC3C(=O)N(C)C(=N)NC3(c3cc(F)ccc3F)C2)c(Cl)c1 (centres unmarked) [Compound 23] | > 10000 nM | 
